In the NIST ThermoML archive (doi:10.1016/j.fluid.2009.04.021):
Numbers after ± are expanded uncertainties.

Details: 101.33 kPa, Liquid, Buoyancy - hydrostatic balance

CCCCn1cc[n+](C)c1.F[B-](F)(F)F [1-butyl-3-methylimidazolium tetrafluoroborate]
Details	mass density [kg/m3]
281.45 K	1213.36 ± 10
283.01 K	1212.07 ± 10
288.41 K	1207.87 ± 10
288.49 K	1207.91 ± 10
293.2 K	1204.14 ± 10
293.49 K	1204.59 ± 10
298.19 K	1200.74 ± 10
298.29 K	1200.69 ± 10
303.04 K	1197.96 ± 10
303.25 K	1196.93 ± 10
308.02 K	1192.73 ± 10
308.14 K	1193.22 ± 10
312.86 K	1190.14 ± 10
313.44 K	1190.35 ± 10
318.17 K	1187.07 ± 10
318.18 K	1185.49 ± 10
323.04 K	1183.15 ± 10
323.06 K	1184.13 ± 10
327.58 K	1180.59 ± 10
328.06 K	1179.55 ± 10
332.87 K	1175.86 ± 10
333.24 K	1177.1 ± 10
337.9 K	1173.42 ± 10
337.97 K	1172.99 ± 10
342.78 K	1169.84 ± 10
343.45 K	1170.2 ± 10
347.5 K	1166.66 ± 10
348.11 K	1166.78 ± 10
350.81 K	1165.3 ± 10
352.74 K	1163.68 ± 10

CCn1cc[n+](C)c1.F[B-](F)(F)F [1-ethyl-3-methylimidazolium tetrafluoroborate]
Details	mass density [kg/m3]
293.41 K	1287.17 ± 10
298.14 K	1283.2 ± 10
303.08 K	1279.88 ± 10
307.94 K	1275.06 ± 10
313 K	1271.88 ± 10
318.7 K	1267.21 ± 10
322.5 K	1265.05 ± 10
328.4 K	1260.59 ± 10
332.78 K	1257.46 ± 10
338.22 K	1254.07 ± 10
343.05 K	1251.15 ± 10
347.97 K	1247.07 ± 10
353.07 K	1243.6 ± 10

CCCCCCn1cc[n+](C)c1.F[B-](F)(F)F [1-hexyl-3-methylimidazolium tetrafluoroborate]
Details	mass density [kg/m3]
283.61 K	1166.71 ± 10
288.57 K	1163.12 ± 10
293.48 K	1159.99 ± 10
298.22 K	1156.57 ± 10
303.11 K	1152.91 ± 10
308.16 K	1149.26 ± 10
313.25 K	1146.23 ± 10
318.33 K	1142.64 ± 10
323 K	1139.57 ± 10
328.63 K	1135.72 ± 10
333.69 K	1132.53 ± 10
338.15 K	1129.41 ± 10
343.04 K	1126.12 ± 10
348.26 K	1122.71 ± 10
352.72 K	1119.68 ± 10
